Experimental data as given in ChEMBL document CHEMBL5107965, “The progress of small-molecules and degraders against BCR-ABL for the treatment of CML” (Eur J Med Chem, 2022).
Converted amounts (≈) assume the structure as drawn.

Key:
[1] = biological target: Platelet-derived growth factor receptor beta (Homo sapiens, UniProt P09619); assay: Inhibition of PDGFRbeta (unknown origin)
[2] = biological target: Mast/stem cell growth factor receptor Kit (Homo sapiens, UniProt P10721); assay: Inhibition of c-Kit (unknown origin)
Mast/stem cell growth factor receptor Kit, sequence (P10721 whole entry): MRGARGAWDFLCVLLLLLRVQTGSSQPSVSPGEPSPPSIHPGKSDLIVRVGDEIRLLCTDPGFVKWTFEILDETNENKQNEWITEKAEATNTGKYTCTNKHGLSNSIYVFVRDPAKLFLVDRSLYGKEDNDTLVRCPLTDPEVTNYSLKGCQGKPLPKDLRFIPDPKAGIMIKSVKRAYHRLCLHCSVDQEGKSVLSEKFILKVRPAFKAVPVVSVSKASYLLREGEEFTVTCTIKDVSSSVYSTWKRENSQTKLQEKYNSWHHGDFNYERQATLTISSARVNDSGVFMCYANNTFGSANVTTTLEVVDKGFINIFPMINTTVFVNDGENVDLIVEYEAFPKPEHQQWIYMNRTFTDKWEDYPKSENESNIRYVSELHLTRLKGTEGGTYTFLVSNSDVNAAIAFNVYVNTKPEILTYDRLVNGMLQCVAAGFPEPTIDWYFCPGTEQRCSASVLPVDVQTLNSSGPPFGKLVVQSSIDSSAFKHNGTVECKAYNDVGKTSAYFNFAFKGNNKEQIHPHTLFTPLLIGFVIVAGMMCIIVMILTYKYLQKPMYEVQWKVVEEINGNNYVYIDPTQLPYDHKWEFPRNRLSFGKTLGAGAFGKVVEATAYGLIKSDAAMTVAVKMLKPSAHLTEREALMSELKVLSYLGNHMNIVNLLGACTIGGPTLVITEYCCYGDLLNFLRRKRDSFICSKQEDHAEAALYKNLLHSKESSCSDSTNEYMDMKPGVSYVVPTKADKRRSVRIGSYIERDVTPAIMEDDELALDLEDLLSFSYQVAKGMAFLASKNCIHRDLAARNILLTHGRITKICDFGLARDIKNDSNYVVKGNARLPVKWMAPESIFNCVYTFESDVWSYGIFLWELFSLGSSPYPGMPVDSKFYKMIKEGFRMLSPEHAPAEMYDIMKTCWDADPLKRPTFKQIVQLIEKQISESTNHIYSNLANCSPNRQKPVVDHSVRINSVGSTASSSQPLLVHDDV

K562 [3] = assay: Antiproliferative activity against imatinib resistant human K562 cells assessed as cell growth inhibition measured after 48 to 72 hrs by MTS assay; type: functional, cell-based
K562 [4] = assay: Antiproliferative activity against imatinib resistant human K562 cells harbouring wild type ABL assessed as cell growth inhibition by XTT assay; type: functional
K562 [5] = assay: Antiproliferative activity against imatinib resistant human K562 cells harbouring ABL-T315I mutant assessed as cell growth inhibition by XTT assay; type: functional
K562 [6] = assay: Antiproliferative activity against human K562 cells assessed as cell growth inhibition; type: functional, cell-based
Bcr/Abl fusion protein [7] = biological target: T1, Bcr/Abl fusion protein (Homo sapiens, UniProt P00519); assay: Inhibition of BCR-ABL (unknown origin); type: protein assay
[8] = Inhibition of Abl […] mutant (unknown origin); parameters: species or system Homo sapiens
BaF3 = assay: cells; conditions: Mus musculus
K562 [9] = assay: Cytotoxicity against human K562 cells assessed as cell growth inhibition measured after 72 hrs by MTT assay; type: functional, cell-based; conditions: K562, 72 h
BCR/ABL1 [10] = biological target: BCR/ABL1 (Mus musculus, UniProt P00520, E255V); assay: Inhibition of BCR-ABL E255V mutant phosphorylation in mouse BaF3 cells incubated for 4 hrs by immunoblotting analysis; type: cell-based
BCR/ABL1 (Mus musculus, UniProt P00520, E255V), sequence (P00520 whole entry E255V, looked up): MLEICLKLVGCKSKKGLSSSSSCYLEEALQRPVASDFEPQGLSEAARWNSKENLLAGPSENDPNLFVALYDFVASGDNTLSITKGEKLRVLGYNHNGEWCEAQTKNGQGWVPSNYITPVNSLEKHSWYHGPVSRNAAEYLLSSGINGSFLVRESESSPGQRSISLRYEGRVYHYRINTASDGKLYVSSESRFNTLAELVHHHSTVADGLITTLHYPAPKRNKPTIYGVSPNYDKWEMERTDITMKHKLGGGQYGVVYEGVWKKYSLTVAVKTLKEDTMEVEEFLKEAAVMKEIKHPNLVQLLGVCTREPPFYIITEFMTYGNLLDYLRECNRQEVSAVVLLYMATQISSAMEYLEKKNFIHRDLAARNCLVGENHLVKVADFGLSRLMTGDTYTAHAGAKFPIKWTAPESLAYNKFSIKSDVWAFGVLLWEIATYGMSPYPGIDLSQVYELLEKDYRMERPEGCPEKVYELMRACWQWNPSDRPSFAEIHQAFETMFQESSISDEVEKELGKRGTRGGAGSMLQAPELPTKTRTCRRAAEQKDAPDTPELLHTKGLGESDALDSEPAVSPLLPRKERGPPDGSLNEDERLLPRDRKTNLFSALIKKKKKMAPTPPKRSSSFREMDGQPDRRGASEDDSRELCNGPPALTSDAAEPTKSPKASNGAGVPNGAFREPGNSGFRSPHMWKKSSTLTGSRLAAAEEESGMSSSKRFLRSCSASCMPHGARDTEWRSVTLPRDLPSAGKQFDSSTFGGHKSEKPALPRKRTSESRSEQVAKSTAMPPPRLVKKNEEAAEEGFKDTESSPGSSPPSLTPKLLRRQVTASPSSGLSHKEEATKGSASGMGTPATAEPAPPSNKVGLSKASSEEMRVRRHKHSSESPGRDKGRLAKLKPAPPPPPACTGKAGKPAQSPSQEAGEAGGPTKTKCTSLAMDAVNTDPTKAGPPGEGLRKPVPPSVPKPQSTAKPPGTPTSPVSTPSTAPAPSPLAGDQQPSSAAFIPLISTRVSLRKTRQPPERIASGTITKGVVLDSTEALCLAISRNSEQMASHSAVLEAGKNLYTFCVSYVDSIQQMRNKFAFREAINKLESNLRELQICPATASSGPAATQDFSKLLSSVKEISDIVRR

BCR/ABL1 [11] = biological target: BCR/ABL1 (Mus musculus, UniProt P00520, T315I); assay: Inhibition of BCR-ABL T315I mutant phosphorylation in mouse BaF3 cells incubated for 4 hrs by immunoblotting analysis; type: cell-based
BCR/ABL1 (Mus musculus, UniProt P00520, T315I), sequence (P00520 whole entry T315I, looked up): as the sequence (P00520 whole entry E255V, looked up) above, with V255E, T315I counted along it

[12] = Ratio of drug concentration in brain to plasma of mouse at 30 mg/kg, measured after 1 hr; type: ADME, organism-based; conditions: read-out: BPR
[13] = Drug concentration in brain of mouse at 30 mg/kg, measured after 1 hr; type: ADME, organism-based; conditions: read-out: Ct
[14] = Inhibition of BCR-ABL Y253H mutant phosphorylation in mouse BaF3 cells incubated for 4 hrs by immunoblotting analysis; type: cell-based; conditions: BaF3, 4 h
[15] = Inhibition of BCR-ABL L248R mutant phosphorylation in mouse BaF3 cells incubated for 4 hrs by immunoblotting analysis; type: cell-based; conditions: BaF3, 4 h
Bcr/Abl fusion protein [16] = biological target: T1, Bcr/Abl fusion protein; assay: Inhibition of wild type BCR-ABL phosphorylation in mouse BaF3 cells incubated for 4 hrs by immunoblotting analysis; type: cell-based
[17] = Plasma concentration in mouse at 30 mg/kg, measured after 1 hr; type: ADME, organism-based
[18] = biological target: Tyrosine-protein kinase ABL1 (Homo sapiens, UniProt P00519, T315I); assay: Inhibition of Abl T315I mutant (unknown origin)
[19] = biological target: Tyrosine-protein kinase ABL1 (Homo sapiens, UniProt P00519)
Description: Inhibition of wild type Abl (unknown origin)

Aurora kinase A = biological target: T2, Aurora kinase A (Homo sapiens, UniProt O14965); assay: Inhibition of Aurora A (unknown origin)
T2 sequence (O14965 whole entry): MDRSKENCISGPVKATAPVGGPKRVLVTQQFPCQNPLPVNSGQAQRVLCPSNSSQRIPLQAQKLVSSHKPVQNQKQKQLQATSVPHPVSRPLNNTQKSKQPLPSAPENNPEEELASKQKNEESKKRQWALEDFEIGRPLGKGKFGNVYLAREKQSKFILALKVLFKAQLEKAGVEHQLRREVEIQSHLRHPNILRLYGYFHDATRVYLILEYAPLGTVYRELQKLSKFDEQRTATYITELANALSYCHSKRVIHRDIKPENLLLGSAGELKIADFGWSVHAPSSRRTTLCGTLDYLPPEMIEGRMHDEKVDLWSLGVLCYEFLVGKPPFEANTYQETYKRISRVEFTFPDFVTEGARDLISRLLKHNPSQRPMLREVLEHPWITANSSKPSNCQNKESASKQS

K562 [20] = assay: Antiproliferative activity against imatinib resistant human K562 cells expressing BCR-ABL assessed as cell growth inhibition; type: functional, cell-based
K562 [21] = assay: Antiproliferative activity against imatinib resistant human K562 cells expressing STAT5 assessed as cell growth inhibition; type: functional, cell-based

Platelet-derived growth factor receptor beta, sequence (P09619 whole entry): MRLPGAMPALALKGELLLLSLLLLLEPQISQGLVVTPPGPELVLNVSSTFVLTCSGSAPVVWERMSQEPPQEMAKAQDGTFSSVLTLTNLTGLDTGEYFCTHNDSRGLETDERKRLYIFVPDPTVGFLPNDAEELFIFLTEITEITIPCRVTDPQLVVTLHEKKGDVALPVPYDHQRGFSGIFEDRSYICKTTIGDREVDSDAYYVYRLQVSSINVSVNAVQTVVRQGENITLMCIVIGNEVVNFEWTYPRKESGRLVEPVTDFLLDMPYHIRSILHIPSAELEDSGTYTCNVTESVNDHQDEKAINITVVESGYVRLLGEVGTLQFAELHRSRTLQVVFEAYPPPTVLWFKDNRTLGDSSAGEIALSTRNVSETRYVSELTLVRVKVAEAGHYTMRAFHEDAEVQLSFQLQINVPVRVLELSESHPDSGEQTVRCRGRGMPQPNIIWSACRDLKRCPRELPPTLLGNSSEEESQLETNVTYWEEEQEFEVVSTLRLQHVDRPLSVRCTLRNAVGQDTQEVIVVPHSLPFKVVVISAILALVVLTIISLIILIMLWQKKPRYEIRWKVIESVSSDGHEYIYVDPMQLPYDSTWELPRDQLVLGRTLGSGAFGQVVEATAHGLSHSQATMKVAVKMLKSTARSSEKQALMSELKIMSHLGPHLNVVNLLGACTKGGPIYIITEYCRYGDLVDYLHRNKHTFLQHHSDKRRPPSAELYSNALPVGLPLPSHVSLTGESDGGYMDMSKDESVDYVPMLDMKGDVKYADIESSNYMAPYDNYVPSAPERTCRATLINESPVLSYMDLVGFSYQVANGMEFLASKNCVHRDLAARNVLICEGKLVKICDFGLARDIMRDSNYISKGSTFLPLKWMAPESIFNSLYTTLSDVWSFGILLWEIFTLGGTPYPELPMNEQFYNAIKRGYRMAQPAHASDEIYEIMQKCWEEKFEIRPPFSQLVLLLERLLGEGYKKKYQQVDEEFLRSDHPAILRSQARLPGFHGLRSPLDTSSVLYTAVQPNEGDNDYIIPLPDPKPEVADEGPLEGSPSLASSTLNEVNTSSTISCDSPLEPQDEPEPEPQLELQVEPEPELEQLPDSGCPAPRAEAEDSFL

Cc1ncc(NC(=O)c2ccc(CN3CCN(C)CC3)c(C(F)(F)F)c2)cc1Nc1nccc(-c2cccnc2)n1 [FLUMATINIB]
IC50 [1]: 308 nM
IC50 [2]: 666 nM

CC(C)=CCC[C@]1(C)C=Cc2c(O)c3c(c(CC=C(C)C)c2O1)O[C@]12C(=C[C@@H]4C[C@H]1C(C)(C)O[C@@]2(C/C=C(/C)C(=O)O)C4=O)C3=O [GAMBOGIC ACID]
IC50 (K562 [3]): 620 nM

O=C(c1ccc(/C=C/c2n[nH]c3ccccc23)cc1)N1CCNCC1 [KW-2449]
GI50 (K562 [4]): 270 nM
GI50 (K562 [5]): 270 nM

COC(=O)C[C@](O)(CCCC(C)(C)O)C(=O)O[C@@H]1C(OC)=C[C@]23CCCN2CCc2cc4c(cc2[C@H]13)OCO4 [OMACETAXINE MEPESUCCINATE]
IC50 (K562 [6]): 0.0439 µg/mL (≈ 0.0804 µM)

Cc1cn(-c2cc(NC(=O)c3ccc(C)c(Nc4nccc(-c5cnccn5)n4)c3)cc(C(F)(F)F)c2)cn1 [RADOTINIB]
IC50 (Bcr/Abl fusion protein [7]): 1.2 nM

CNC(=O)c1cc(Oc2ccc(NC(=O)Nc3cc(C(C)(C)C)nn3-c3ccc4ncccc4c3)c(F)c2)ccn1 [REBASTINIB]
IC50 [8]: 1.4 nM

Cc1cc(Nc2cc(N3CCN(C)CC3)nc(Sc3ccc(NC(=O)C4CC4)cc3)n2)n[nH]1 [TOZASERTIB]
IC50 (BaF3): 100 nM

Cc1ccc(C(=O)Nc2ccc(CN3CCN(C)CC3)c(C(F)(F)F)c2)cc1C#Cc1nnc2ccccn12 [VAMOTINIB]
IC50 (K562 [9]): 1 nM

Cc1ccc(C(=O)NNC(=O)c2c(C)cccc2Cl)cc1C#Cc1cnc2ccccc2c1 [VODOBATINIB]
IC50 (BCR/ABL1 [10]): 165 nM
IC50 (BCR/ABL1 [11]): 1970 nM
Kp at 1 h [12]: 0.4
concentration at 1 h [13]: 1900 ng/g
IC50 [14]: 154 nM
IC50 [15]: 167 nM
IC50 (Bcr/Abl fusion protein [16]): 0.9 nM
concentration at 1 h [17]: 4800 ng/mL

CC(C)c1cc(CNc2nc(Nc3cc(C4CC4)[nH]n3)cc(N3CCN(C)CC3)n2)on1 [XL-228]
IC50 [18]: 14 nM
IC50 [19]: 5 nM
IC50 (Aurora kinase A): 3.1 nM
IC50 (K562 [20]): 33 nM
IC50 (K562 [21]): 43 nM
